Measurements taken from ChEMBL document CHEMBL5608163, “Structure modification of anoplin for fighting resistant bacteria” (Eur J Med Chem, 2024).
Values after ≈ are worked out from the molar mass of the structure shown. Bridge positions count the residues as written; N and C are the ends. Square brackets hold non-standard residues; d marks the D form. Peptide text beside a SMILES is read from it. I, II: the chains in the order shown. 2Nal = N[C@@H](Cc1ccc2ccccc2c1)C(=O)O; Cha = N[C@@H](CC1CCCCC1)C(=O)O; hSer = N[C@@H](CCO)C(=O)O; Nle = CCCC[C@H](N)C(=O)O; Orn = NCCC[C@H](N)C(=O)O; Dab = NCC[C@H](N)C(=O)O; Nva = CCC[C@H](N)C(=O)O; Dap = NC[C@H](N)C(=O)O

Columns and labels:
Staphylococcus aureus = assay: Antibacterial activity against Staphylococcus aureus ATCC 25923 assessed as reduction in bacterial cell growth incubated for 16 to 24 hrs by CLSI-protocol based Mueller-Hinton Broth micro-dilution method; type: functional; details: time 16-24 hrs
Pseudomonas aeruginosa = assay: Antibacterial activity against Pseudomonas aeruginosa ATCC 27853 assessed as reduction in bacterial cell growth incubated for 16 to 24 hrs by CLSI-protocol based Mueller-Hinton Broth micro-dilution method; type: functional; details: time 16-24 hrs
Escherichia coli [1] = assay: Antibacterial activity against Escherichia coli ATCC 25922 assessed as reduction in bacterial cell growth incubated for 16 to 24 hrs by CLSI-protocol based Mueller-Hinton Broth micro-dilution method; type: functional; details: time 16-24 hrs
Klebsiella pneumoniae = assay: Antibacterial activity against Klebsiella pneumoniae ATCC 700603 assessed as reduction in bacterial cell growth incubated for 16 to 24 hrs by CLSI-protocol based Mueller-Hinton Broth micro-dilution method; type: functional; details: time 16-24 hrs
Bacillus subtilis = assay: Antibacterial activity against Bacillus subtilis ATCC 23857 assessed as reduction in bacterial cell growth incubated for 16 to 24 hrs by CLSI-protocol based Mueller-Hinton Broth micro-dilution method; type: functional; details: time 16-24 hrs
Escherichia coli [2] = assay: Antimicrobial activity against Escherichia coli ATCC 25922 assessed as reduction in microbial growth measured after 24 hrs by CLSI based broth microdilution method; type: functional
Erythrocyte = assay: Hemolytic activity in human erythrocytes incubated for 1 hr by ELISA reader analysis; type: toxicity, cell-based

Row | Structure (SMILES) | MIC (Escherichia coli [2]) | HC10 (Erythrocyte) | further results
1 | CC[C@H](C)[C@H](NC(=O)[C@H](CCCNC(=N)N)NC(=O)[C@H](CCCCN)NC(=O)[C@H](CC(C)C)NC(=O)[C@H](CC(C)C)NC(=O)CN)C(=O)N[C@@H](CCCCN)C(=O)N[C@H](C(=O)N[C@@H](CC(C)C)C(=O)N[C@@H](CC(C)C)C(=O)NCCCC[C@H](NC(=O)[C@H](CCCCNC(=O)[C@H](CC(C)C)NC(=O)[C@H](CC(C)C)NC(=O)[C@@H](NC(=O)[C@H](CCCCN)NC(=O)[C@@H](NC(=O)[C@H](CCCNC(=N)N)NC(=O)[C@H](CCCCN)NC(=O)[C@H](CC(C)C)NC(=O)[C@H](CC(C)C)NC(=O)CN)[C@@H](C)CC)[C@@H](C)O)NC(=O)[C@H](CC(C)C)NC(=O)[C@H](CC(C)C)NC(=O)[C@@H](NC(=O)[C@H](CCCCN)NC(=O)[C@@H](NC(=O)[C@H](CCCNC(=N)N)NC(=O)[C@H](CCCCN)NC(=O)[C@H](CC(C)C)NC(=O)[C@H](CC(C)C)NC(=O)CN)[C@@H](C)CC)[C@@H](C)O)C(N)=O)[C@@H](C)O (I: H-GLLKRIKTLLKK-NH2 / II: H-GLLKRIKTLL / III: H-GLLKRIKTLL; amide I:11-III:C, I:12-II:C) |  |  | MIC (Staphylococcus aureus): 4 µM (≈ 14.7 µg/mL); MIC (Pseudomonas aeruginosa): 4 µM (≈ 14.7 µg/mL); MIC (Escherichia coli [1]): 8 µM (≈ 29.5 µg/mL); MIC (Klebsiella pneumoniae): 4 µM (≈ 14.7 µg/mL); MIC (Bacillus subtilis): 4 µM (≈ 14.7 µg/mL)
2 | CC[C@H](C)[C@H](NC(=O)[C@H](CCCNC(=N)N)NC(=O)[C@H](CCCCN)NC(=O)[C@H](CC(C)C)NC(=O)[C@H](COC)NC(=O)CN)C(=O)N[C@@H](CCCCN)C(=O)N[C@H](C(=O)N[C@@H](CC(C)C)C(=O)N[C@@H](COC)C(N)=O)[C@@H](C)O (H-GS(Me)LKRIKTLS(Me)-NH2) | > 200 µM | > 500 µM | 
3 | CC[C@H](C)[C@H](NC(=O)[C@H](CCCNC(=N)N)NC(=O)[C@H](CCCCN)NC(=O)[C@H](CCSC)NC(=O)[C@H](CCSC)NC(=O)CN)C(=O)N[C@@H](CCCCN)C(=O)N[C@H](C(=O)N[C@@H](CCSC)C(=O)N[C@@H](CCSC)C(N)=O)[C@@H](C)O (H-GMMKRIKTMM-NH2) | > 200 µM | > 500 µM | 
4 | CCCC[C@H](NC(=O)[C@H](CCCC)NC(=O)[C@@H](NC(=O)[C@H](CCCCN)NC(=O)[C@@H](NC(=O)[C@H](CCCNC(=N)N)NC(=O)[C@H](CCCCN)NC(=O)[C@H](CCCC)NC(=O)[C@H](CCCC)NC(=O)CN)[C@@H](C)CC)[C@@H](C)O)C(N)=O (H-G[Nle][Nle]KRIKT[Nle][Nle]-NH2) | 100 µM | > 500 µM | 
5 | CC[C@H](C)[C@H](NC(=O)[C@H](CCCNC(=N)N)NC(=O)[C@H](CN)NC(=O)[C@H](CC(C)C)NC(=O)[C@H](CC(C)C)NC(=O)CN)C(=O)N[C@@H](CCCCN)C(=O)N[C@H](C(=O)N[C@@H](CC(C)C)C(=O)N[C@@H](CC(C)C)C(N)=O)[C@@H](C)O (H-GLL[Dap]RIKTLL-NH2) | 100 µM | > 500 µM | 
6 | CC[C@H](C)[C@H](NC(=O)[C@H](CCCNC(=N)N)NC(=O)[C@H](CCCCN)NC(=O)[C@H](CC(C)C)NC(=O)[C@H](CC(C)C)NC(=O)CN)C(=O)N[C@@H](CCCCN)C(=O)N[C@@H](CO)C(=O)N[C@@H](CC(C)C)C(=O)N[C@@H](CC(C)C)C(N)=O (H-GLLKRIKSLL-NH2) | 100 µM | > 500 µM | 
7 | CCC[C@H](NC(=O)[C@H](CCC)NC(=O)[C@@H](NC(=O)[C@H](CCCCN)NC(=O)[C@@H](NC(=O)[C@H](CCCNC(=N)N)NC(=O)[C@H](CCCCN)NC(=O)[C@H](CCC)NC(=O)[C@H](CCC)NC(=O)CN)[C@@H](C)CC)[C@@H](C)O)C(N)=O (H-G[Nva][Nva]KRIKT[Nva][Nva]-NH2) | > 200 µM | > 500 µM | 
8 | CC[C@H](C)[C@H](NC(=O)[C@H](CCCNC(=N)N)NC(=O)[C@H](CO)NC(=O)[C@H](CC(C)C)NC(=O)[C@H](CC(C)C)NC(=O)CN)C(=O)N[C@@H](CCCCN)C(=O)N[C@H](C(=O)N[C@@H](CC(C)C)C(=O)N[C@@H](CC(C)C)C(N)=O)[C@@H](C)O (H-GLLSRIKTLL-NH2) | 100 µM | > 500 µM | 
9 | CC[C@H](C)[C@H](NC(=O)[C@H](CCCNC(=N)N)NC(=O)[C@H](CCN)NC(=O)[C@H](CC(C)C)NC(=O)[C@H](CC(C)C)NC(=O)CN)C(=O)N[C@@H](CCCCN)C(=O)N[C@H](C(=O)N[C@@H](CC(C)C)C(=O)N[C@@H](CC(C)C)C(N)=O)[C@@H](C)O (H-GLL[Dab]RIKTLL-NH2) | 75 µM | > 500 µM | 
10 | CC(C)C[C@H](NC(=O)[C@H](C)NC(=O)CN)C(=O)N[C@@H](CCCCN)C(=O)N[C@@H](CCCNC(=N)N)C(=O)N[C@@H](Cc1ccc2ccccc2c1)C(=O)N[C@@H](CCCCN)C(=O)N[C@H](C(=O)N[C@@H](CC(C)C)C(=O)N[C@@H](C)C(N)=O)[C@@H](C)O (H-GALKR[2Nal]KTLA-NH2) | > 200 µM | > 500 µM | 
11 | CC[C@H](C)[C@H](NC(=O)[C@H](CCCNC(=N)N)NC(=O)[C@H](CCCCN)NC(=O)[C@H](COC)NC(=O)[C@H](COC)NC(=O)CN)C(=O)N[C@@H](CCCCN)C(=O)N[C@H](C(=O)N[C@@H](COC)C(=O)N[C@@H](COC)C(N)=O)[C@@H](C)O (H-GS(Me)S(Me)KRIKTS(Me)S(Me)-NH2) | 12.5 µM | > 500 µM | 
12 | CC[C@H](C)[C@H](NC(=O)[C@H](CCCNC(=N)N)NC(=O)[C@H](CCCCN)NC(=O)[C@H](CC(C)C)NC(=O)[C@@H](NC(=O)CN)C(C)C)C(=O)N[C@@H](CCCCN)C(=O)N[C@H](C(=O)N[C@@H](CC(C)C)C(=O)N[C@H](C(N)=O)C(C)C)[C@@H](C)O (H-GVLKRIKTLV-NH2) | > 200 µM | > 500 µM | 
13 | CC[C@H](C)[C@H](NC(=O)[C@H](CCCNC(=N)N)NC(=O)[C@H](CCCCN)NC(=O)[C@H](CC(C)C)NC(=O)[C@H](CC1CCCCC1)NC(=O)CN)C(=O)N[C@@H](CCCCN)C(=O)N[C@H](C(=O)N[C@@H](CC1CCCCC1)C(=O)N[C@@H](CC(C)C)C(N)=O)[C@@H](C)O (H-G[Cha]LKRIKT[Cha]L-NH2) | 12.5 µM | 120 µM | 
14 | CC[C@H](C)[C@H](NC(=O)[C@H](CCCNC(=N)N)NC(=O)[C@H](CCCCN)NC(=O)[C@H](CC(C)C)NC(=O)[C@H](COC)NC(=O)CN)C(=O)N[C@@H](CCCCN)C(=O)N[C@H](C(=O)N[C@@H](CC(C)C)C(=O)N[C@@H](CC(C)C)C(N)=O)[C@@H](C)O (H-GS(Me)LKRIKTLL-NH2) | > 200 µM | > 500 µM | 
15 | CC[C@H](C)[C@H](NC(=O)[C@H](CCCNC(=N)N)NC(=O)[C@@H](NC(=O)[C@H](CC(C)C)NC(=O)[C@H](CC(C)C)NC(=O)CN)[C@@H](C)O)C(=O)N[C@@H](CCCCN)C(=O)N[C@H](C(=O)N[C@@H](CC(C)C)C(=O)N[C@@H](CC(C)C)C(N)=O)[C@@H](C)O (H-GLLTRIKTLL-NH2) | 200 µM | > 500 µM | 
16 | CCC[C@H](NC(=O)[C@H](CC(C)C)NC(=O)[C@@H](NC(=O)[C@H](CCCCN)NC(=O)[C@@H](NC(=O)[C@H](CCCNC(=N)N)NC(=O)[C@H](CCCCN)NC(=O)[C@H](CC(C)C)NC(=O)[C@H](CCC)NC(=O)CN)[C@@H](C)CC)[C@@H](C)O)C(N)=O (H-G[Nva]LKRIKTL[Nva]-NH2) | > 200 µM | > 500 µM | 
17 | CCCC[C@H](NC(=O)[C@H](CC(C)C)NC(=O)[C@@H](NC(=O)[C@H](CCCCN)NC(=O)[C@@H](NC(=O)[C@H](CCCNC(=N)N)NC(=O)[C@H](CCCCN)NC(=O)[C@H](CC(C)C)NC(=O)[C@H](CCCC)NC(=O)CN)[C@@H](C)CC)[C@@H](C)O)C(N)=O (H-G[Nle]LKRIKTL[Nle]-NH2) | 100 µM | > 500 µM | 
18 | CCC[C@H](NC(=O)[C@H](CCC)NC(=O)[C@@H](NC(=O)[C@H](CCCCN)NC(=O)[C@H](Cc1ccc2ccccc2c1)NC(=O)[C@H](CCCNC(=N)N)NC(=O)[C@H](CCCCN)NC(=O)[C@H](CCC)NC(=O)[C@H](CCC)NC(=O)CN)[C@@H](C)O)C(N)=O (H-G[Nva][Nva]KR[2Nal]KT[Nva][Nva]-NH2) | > 200 µM | > 500 µM | 
19 | CCC[C@H](NC(=O)[C@H](CC(C)C)NC(=O)[C@@H](NC(=O)[C@H](CCCCN)NC(=O)[C@H](Cc1ccc2ccccc2c1)NC(=O)[C@H](CCCNC(=N)N)NC(=O)[C@H](CCCCN)NC(=O)[C@H](CC(C)C)NC(=O)[C@H](CCC)NC(=O)CN)[C@@H](C)O)C(N)=O (H-G[Nva]LKR[2Nal]KTL[Nva]-NH2) | 100 µM | > 500 µM | 
20 | CC[C@H](C)[C@H](NC(=O)[C@H](CCCNC(=N)N)NC(=O)[C@H](CCO)NC(=O)[C@H](CC(C)C)NC(=O)[C@H](CC(C)C)NC(=O)CN)C(=O)N[C@@H](CCCCN)C(=O)N[C@H](C(=O)N[C@@H](CC(C)C)C(=O)N[C@@H](CC(C)C)C(N)=O)[C@@H](C)O (H-GLL[hSer]RIKTLL-NH2) | 150 µM | > 500 µM | 
21 | CC[C@H](C)[C@H](NC(=O)[C@H](CCCNC(=N)N)NC(=O)[C@H](CCCCN)NC(=O)[C@H](CC(C)C)NC(=O)[C@H](CCSC)NC(=O)CN)C(=O)N[C@@H](CCCCN)C(=O)N[C@H](C(=O)N[C@@H](CC(C)C)C(=O)N[C@@H](CC(C)C)C(N)=O)[C@@H](C)O (H-GMLKRIKTLL-NH2) | 200 µM | 400 µM | 
22 | CCC[C@H](NC(=O)[C@H](CC(C)C)NC(=O)CN)C(=O)N[C@@H](CCCCN)C(=O)N[C@@H](CCCNC(=N)N)C(=O)N[C@@H](Cc1ccc2ccccc2c1)C(=O)N[C@@H](CCCCN)C(=O)N[C@H](C(=O)N[C@@H](CCC)C(=O)N[C@@H](CC(C)C)C(N)=O)[C@@H](C)O (H-GL[Nva]KR[2Nal]KT[Nva]L-NH2) | 100 µM | > 500 µM | 
23 | CC[C@H](C)[C@H](NC(=O)[C@H](CCCNC(=N)N)NC(=O)[C@H](CCCN)NC(=O)[C@H](CC(C)C)NC(=O)[C@H](CC(C)C)NC(=O)CN)C(=O)N[C@@H](CCCCN)C(=O)N[C@H](C(=O)N[C@@H](CC(C)C)C(=O)N[C@@H](CC(C)C)C(N)=O)[C@@H](C)O (H-GLL[Orn]RIKTLL-NH2) | 100 µM | > 500 µM | 
